Assay results taken from patent US4314061A, “Certain 3,6-bis-(heteroaminoalkoxy) acridines” (priority 1980, dated 1982).
Structures can show the parent of a compound that is named as a salt.

What was measured:
Columbia SK virus [1] = test: Antiviral effects against an interferon-sensitive virus, Columbia SK; assay type: in vivo, Taconic Farms male, white mice; conditions: 400 mg/kg oral, 18 hours before infection; 14 days post injection
Protocol: Taconic Farms male, white mice, weighing 18-24 g were treated by gavage, 18 hours before infection with a test compound suspended or dissolved in 1.0 ml of 0.2% aqueous agar solution. The mice were then infected by subcutaneous injection with one LD95 of Columbia SK virus in 0.2 ml of distilled water. Groups of infected, untreated mice were used as controls to show the lethality of the infection. The test duration was 14 days.

[2] = system: Rauscher Virus-Induced Leukemia; test: Inhibition of splenomegaly in mice with Rauscher virus-induced leukemia; assay type: in vivo, Balb/c mice; conditions: for reduction in splenomegaly: general statement, no dose, relative to placebo treated RLV-infected mice
[3] = system: Rauscher Virus-Induced Leukemia; test: Restoration of antibody formation in mice with Rauscher virus-induced leukemia; assay type: in vivo, Balb/c mice
B16 melanoma = test: Distribution of metastatic foci in lungs of mice inoculated subcutaneously with B16 melanoma; assay type: in vivo, BDF1 mice; conditions: for No. of mice with 0 lung foci/mouse / No. of mice with 1-5 lung foci/mouse / No. of mice with 6-10 lung foci/mouse / No. of mice with 11-15 lung foci/mouse / No. of mice with >15 lung foci/mouse: day 25
Protocol: BDF1 male mice inoculated subcutaneously with 0.25 ml of a 10% tumor
homogenate on day 0. Drugs administered intraperitoneally days 1,5,9 and
13; mice sacrificed on day 25, 10 mice per group. Distribution of […]

Columbia SK virus [4] = test: Protection of mice against lethal Columbia SK virus infection by oral pre-treatment; assay type: in vivo, random-bred Swiss male mice; conditions: 200 mg/kg oral
Protocol: At 24, 48, 72 and 96 hours after drug treatment, separate groups of mice were injected SC with an LD95 dose of the interferon sensitive virus, Columbia SK. […] Typically, protection from lethal infection with Columbia SK virus is associated with induction of interferon.

[5] = system: natural killer lymphocytes (NK cells); test: Stimulation of NK-cell activity in normal mice; conditions: 10 mg/kg intraperitoneal

With `CCN(CC)C(C)COc1ccc2cc3ccc(OCC(C)N(CC)CC)cc3nc2c1.Cl.Cl.Cl` (centres unmarked) [3,6-Bis(2-diethylaminopropoxy)acridine . 3HCl] as the compound, how does the Survivors/Total (Columbia SK virus [1]) read?
The Survivors/Total was 13/15.

With `CCNCCOc1ccc2cc3ccc(OCCNCC)cc3nc2c1.Cl.Cl.Cl` [3,6-Bis(2-ethylaminoethoxy)acridine trihydrochloride] as the compound, how does the Survivors/Total (Columbia SK virus [1]) read?
Its Survivors/Total is 10/15.

And the “% Reduction in splenomegaly” value ([2]; 100 mg/kg)?
The value was 89%.

With `CCN(CC)CCOc1ccc2cc3ccc(OCCN(CC)CC)c(Cl)c3nc2c1Cl` [3,6-bis(2-diethylaminoethoxy)-4,5-dichloroacridine] as the compound, how does the “Serum hemagglutinin titer/saline control titer” value ([3]; 100 mg/kg oral) read?
Its value is 128/16.

What about the Survivors/Total (Columbia SK virus [1]) of the same compound?
The Survivors/Total was 7/15.

And the “% Reduction in splenomegaly” value ([2]; 50 mg/kg)?
The value was 86%.

How did the “% Reduction in splenomegaly” value ([2]; 100 mg/kg) turn out when `CCN(CC)CCOc1ccc2cc3ccc(OCCN(CC)CC)c([N+](=O)[O-])c3nc2c1[N+](=O)[O-]` [3,6-bis(2-diethylaminoethoxy)-4,5-dinitroacridine] was run?
The value was 108%.

`CN(C)CCOc1ccc2cc3ccc(OCCN(C)C)cc3nc2c1.Cl.Cl.Cl` [3,6-bis(2-dimethylaminoethoxy)acridine trihydrochloride] was tested. Which “No. of mice with 0 lung foci/mouse” value (B16 melanoma; 6.5 mg/kg i.p.) did it give?
The value was 0.

And the “No. of mice with 1-5 lung foci/mouse” value (B16 melanoma; 6.5 mg/kg i.p.)?
The value was 3.

What about the “No. of mice with 6-10 lung foci/mouse” value (B16 melanoma; 6.5 mg/kg i.p.) of the same compound?
The value was 3.

What about the “No. of mice with 11-15 lung foci/mouse” value (B16 melanoma; 6.5 mg/kg i.p.) of the same compound?
The value was 1.

What about the “No. of mice with >15 lung foci/mouse” value (B16 melanoma; 6.5 mg/kg i.p.) of the same compound?
The value was 1.

And the “No. of mice with 0 lung foci/mouse” value (B16 melanoma; 12.5 mg/kg i.p.)?
The value was 1.

And the “No. of mice with 1-5 lung foci/mouse” value (B16 melanoma; 12.5 mg/kg i.p.)?
The value was 5.

And the “No. of mice with 6-10 lung foci/mouse” value (B16 melanoma; 12.5 mg/kg i.p.)?
Its value is 1.

And the “No. of mice with 11-15 lung foci/mouse” value (B16 melanoma; 12.5 mg/kg i.p.)?
Its value is 1.

What about the “No. of mice with >15 lung foci/mouse” value (B16 melanoma; 12.5 mg/kg i.p.) of the same compound?
The value was 1.

What about the “No. of mice with 0 lung foci/mouse” value (B16 melanoma; 25 mg/kg i.p.) of the same compound?
Its value is 2.

What about the “No. of mice with 1-5 lung foci/mouse” value (B16 melanoma; 25 mg/kg i.p.) of the same compound?
Its value is 4.

What about the “No. of mice with 6-10 lung foci/mouse” value (B16 melanoma; 25 mg/kg i.p.) of the same compound?
Its value is 2.

And the “No. of mice with 11-15 lung foci/mouse” value (B16 melanoma; 25 mg/kg i.p.)?
The value was 1.

And the “No. of mice with >15 lung foci/mouse” value (B16 melanoma; 25 mg/kg i.p.)?
Its value is 0.

What about the “No. of mice with 0 lung foci/mouse” value (B16 melanoma; 50 mg/kg i.p.) of the same compound?
Its value is 1.

And the “No. of mice with 1-5 lung foci/mouse” value (B16 melanoma; 50 mg/kg i.p.)?
Its value is 1.

And the “No. of mice with 6-10 lung foci/mouse” value (B16 melanoma; 50 mg/kg i.p.)?
Its value is 4.

And the “No. of mice with 11-15 lung foci/mouse” value (B16 melanoma; 50 mg/kg i.p.)?
Its value is 0.

And the “No. of mice with >15 lung foci/mouse” value (B16 melanoma; 50 mg/kg i.p.)?
Its value is 0.

What about the “No. of mice with 0 lung foci/mouse” value (B16 melanoma; 100 mg/kg i.p.) of the same compound?
The value was 3.

What about the “No. of mice with 1-5 lung foci/mouse” value (B16 melanoma; 100 mg/kg i.p.) of the same compound?
The value was 7.

And the “No. of mice with 6-10 lung foci/mouse” value (B16 melanoma; 100 mg/kg i.p.)?
The value was 0.

And the “No. of mice with 11-15 lung foci/mouse” value (B16 melanoma; 100 mg/kg i.p.)?
The value was 0.

What about the “No. of mice with >15 lung foci/mouse” value (B16 melanoma; 100 mg/kg i.p.) of the same compound?
Its value is 0.

And the “Mortality (in place of lung foci count)” value (B16 melanoma; 200 mg/kg i.p. days 1,5,9,13)?
The value was “All mice dead”.

For `CC(C)NCCOc1ccc2cc3ccc(OCCNC(C)C)cc3nc2c1.Cl.Cl.Cl` [3,6-bis(2-isopropylaminoethoxy)acridine trihydrochloride], which “Serum hemagglutinin titer/saline control titer” value ([3]; 100 mg/kg oral) is on record?
Its value is 512/32.

What about the Survivors/Total (Columbia SK virus [1]) of the same compound?
Its Survivors/Total is 15/15.

And the “% Reduction in splenomegaly” value ([2]; 200 mg/kg)?
Its value is 96%.

What does the source list for `Cl.Cl.Cl.c1cc2cc3ccc(OCCN4CCCCC4)cc3nc2cc1OCCN1CCCCC1` [3,6-bis(2-piperidinoethoxy)acridine trihydrochloride]?
Serum hemagglutinin titer/saline control titer ([3]; 100 mg/kg oral): 256/16; Survivors/Total (Columbia SK virus [1]): 12/15; % Reduction in splenomegaly ([2]; 100 mg/kg): 84%

Which “Serum hemagglutinin titer/saline control titer” value ([3]; 50 mg/kg oral) does the source give for `c1cc2cc3ccc(OCCCN4CCCCC4)cc3nc2cc1OCCCN1CCCCC1` [3,6-bis[3-(1-piperidino)propoxy]acridine trihydrochloride] here?
The value was 1024/32.

What about the Survivors/Total (Columbia SK virus [1]) of the same compound?
The Survivors/Total was 12/15.

What about the “% Reduction in splenomegaly” value ([2]; 50 mg/kg) of the same compound?
The value was 74%.

Which “No. of mice with 0 lung foci/mouse” value (B16 melanoma; 20 mg/kg i.p.) does the source give for `O=c1[nH]cc(F)c(=O)[nH]1` [5-fluorouracil, reference compound] here?
The value was 1.

What about the “No. of mice with 1-5 lung foci/mouse” value (B16 melanoma; 20 mg/kg i.p.) of the same compound?
The value was 2.

What about the “No. of mice with 6-10 lung foci/mouse” value (B16 melanoma; 20 mg/kg i.p.) of the same compound?
The value was 1.

What about the “No. of mice with 11-15 lung foci/mouse” value (B16 melanoma; 20 mg/kg i.p.) of the same compound?
Its value is 2.

What about the “No. of mice with >15 lung foci/mouse” value (B16 melanoma; 20 mg/kg i.p.) of the same compound?
Its value is 1.

And the “No. of mice with 0 lung foci/mouse” value (B16 melanoma; 25 mg/kg i.p.)?
The value was 3.

And the “No. of mice with 1-5 lung foci/mouse” value (B16 melanoma; 25 mg/kg i.p.)?
Its value is 3.

And the “No. of mice with 6-10 lung foci/mouse” value (B16 melanoma; 25 mg/kg i.p.)?
Its value is 1.

And the “No. of mice with 11-15 lung foci/mouse” value (B16 melanoma; 25 mg/kg i.p.)?
Its value is 1.

What about the “No. of mice with >15 lung foci/mouse” value (B16 melanoma; 25 mg/kg i.p.) of the same compound?
The value was 1.

What about the “No. of mice with 0 lung foci/mouse” value (B16 melanoma; 30 mg/kg i.p.) of the same compound?
The value was 3.

What about the “No. of mice with 1-5 lung foci/mouse” value (B16 melanoma; 30 mg/kg i.p.) of the same compound?
Its value is 3.

And the “No. of mice with 6-10 lung foci/mouse” value (B16 melanoma; 30 mg/kg i.p.)?
The value was 3.

What about the “No. of mice with 11-15 lung foci/mouse” value (B16 melanoma; 30 mg/kg i.p.) of the same compound?
The value was 0.

And the “No. of mice with >15 lung foci/mouse” value (B16 melanoma; 30 mg/kg i.p.)?
The value was 0.

What about the “No. of mice with 0 lung foci/mouse” value (B16 melanoma; 40 mg/kg i.p.) of the same compound?
Its value is 2.

And the “No. of mice with 1-5 lung foci/mouse” value (B16 melanoma; 40 mg/kg i.p.)?
The value was 5.

And the “No. of mice with 6-10 lung foci/mouse” value (B16 melanoma; 40 mg/kg i.p.)?
Its value is 4.

And the “No. of mice with 11-15 lung foci/mouse” value (B16 melanoma; 40 mg/kg i.p.)?
The value was 0.

What about the “No. of mice with >15 lung foci/mouse” value (B16 melanoma; 40 mg/kg i.p.) of the same compound?
Its value is 0.

And the “No. of mice with 0 lung foci/mouse” value (B16 melanoma; 50 mg/kg i.p.)?
The value was 2.

What about the “No. of mice with 1-5 lung foci/mouse” value (B16 melanoma; 50 mg/kg i.p.) of the same compound?
Its value is 4.

And the “No. of mice with 6-10 lung foci/mouse” value (B16 melanoma; 50 mg/kg i.p.)?
Its value is 3.

What about the “No. of mice with 11-15 lung foci/mouse” value (B16 melanoma; 50 mg/kg i.p.) of the same compound?
The value was 0.

What about the “No. of mice with >15 lung foci/mouse” value (B16 melanoma; 50 mg/kg i.p.) of the same compound?
The value was 0.

What about the “% Reduction in splenomegaly” value ([2]; 50 mg/kg) of the same compound?
Its value is 115%.

What about the reduction in splenomegaly [2] of the same compound?
Its reduction in splenomegaly is at least 50%.

How did the “% Reduction in splenomegaly” value ([2]; 100 mg/kg) turn out when `Sc1ncnc2nc[nH]c12` [6-Mercaptopurine, 6-mercaptopurine, reference compound] was run?
The value was 113%.

And the reduction in splenomegaly [2]?
The reduction in splenomegaly was at least 50%.

For `CN(Cc1cnc2nc(N)nc(N)c2n1)c1ccc(C(=O)N[C@@H](CCC(=O)O)C(=O)O)cc1` [Methotrexate, reference compound], which “% Reduction in splenomegaly” value ([2]; 4 mg/kg) is on record?
Its value is 59%.

What about the reduction in splenomegaly [2] of the same compound?
The reduction in splenomegaly was at least 50%.

Which “Survivors/Total (14 Days)” value (Columbia SK virus [4]; -24 hr relative to virus challenge, * p <.01) does the source give for `CCN(CC)CCOc1ccc2c(c1)C(=O)c1cc(OCCN(CC)CC)ccc1-2` [Tilorone, tilorone hydrochloride, reference compound] here?
The value was 18/20.

And the “Survivors/Total (14 Days)” value (Columbia SK virus [4]; -48 hr relative to virus challenge, * p <.01)?
Its value is 15/20.

And the “Survivors/Total (14 Days)” value (Columbia SK virus [4]; -72 hr relative to virus challenge, * p <.01)?
Its value is 9/20.

What about the “Survivors/Total (14 Days)” value (Columbia SK virus [4]; -96 hr relative to virus challenge) of the same compound?
Its value is 8/20.

Which results are given for “polyinosinic acid:polycytidylic acid [Poly I:C, reference compound]”?
Serum hemagglutinin titer/saline control titer ([3]; 10 mg/kg IP): 1024/32; % Cytotoxicity ([5]; Test 1 (CD1 mice), * p <.05): 24.7%; % Cytotoxicity ([5]; Test 2 (BDF1 hybrids)): 36.1%
